According to patent US20040157744A1, “Substituted fluoroalkoxyphenylsulfonyl-amino(thio)carbonyltriazolino(thi)ones” (priority 2001, published 2004):

Assays:
[1] = tested on: Barley; experiment: Pre-emergence test, Barley; assay type: in vivo; settings: 4 g ai/ha, after three weeks, vs untreated control (Table A-2)
Protocol: (§1) Solvent: 5 parts by weight of acetone
(§2) Emulsifier: 1 part by weight of alkylaryl polyglycol ether
(§3) To produce a suitable preparation of active compound, 1 part by weight of active compound is mixed with the stated amount of solvent, the stated amount of emulsifier is added and the concentrate is diluted with water to the desired concentration.
(§4) Seeds of the test plants are sown in normal soil. After 24 hours, the soil is sprayed with the preparation of active compounds such that the particular amount of active compound desired is applied per unit area. The concentration of active compound in the spray liquor is chosen such that the particular amount of active compound desired is applied in 1000 litres of water per hectare.
(§5) After three weeks, the degree of damage to the plants is rated in % damaged in comparison to the development of the untreated control. The figures denote:
(§6) 0%=no effect (like untreated control)

[2] = tested on: Viola; experiment: Pre-emergence test, Viola; assay type: in vivo; settings: after three weeks
Protocol: as §1, §2, §3, §4, §5, §6

[3] = tested on: Amaranthus; experiment: Pre-emergence test, Amaranthus; assay type: in vivo; settings: after three weeks
Protocol: as §1, §2, §3, §4, §5, §6

[4] = tested on: Wheat; experiment: Pre-emergence test, Wheat; assay type: in vivo; settings: after three weeks
Protocol: as §1, §2, §3, §4, §5, §6

[5] = tested on: Alopecurus; experiment: Pre-emergence test, Alopecurus; assay type: in vivo; settings: after three weeks
Protocol: as §1, §2, §3, §4, §5, §6

[6] = tested on: Matricaria; experiment: Pre-emergence test, Matricaria; assay type: in vivo; settings: after three weeks
Protocol: as §1, §2, §3, §4, §5, §6

[7] = tested on: Solanum; experiment: Pre-emergence test, Solanum; assay type: in vivo; settings: after three weeks
Protocol: as §1, §2, §3, §4, §5, §6

[8] = tested on: weeds; experiment: Pre-emergence test, action against weeds; assay type: in vivo
Protocol: as §1, §2, §3, §4, §5, §6

[9] = tested on: Galium; experiment: Pre-emergence test, Galium; assay type: in vivo; settings: 30 g ai/ha, after three weeks
Protocol: as §1, §2, §3, §4, §5, §6

[10] = tested on: Lolium; experiment: Pre-emergence test, Lolium; assay type: in vivo; settings: 30 g ai/ha, after three weeks
Protocol: as §1, §2, §3, §4, §5, §6

[11] = tested on: Echinochloa; experiment: Pre-emergence test, Echinochloa; assay type: in vivo; settings: 30 g ai/ha, after three weeks
Protocol: as §1, §2, §3, §4, §5, §6

[12] = tested on: Stellaria; experiment: Pre-emergence test, Stellaria; assay type: in vivo; settings: 30 g ai/ha, after three weeks
Protocol: as §1, §2, §3, §4, §5, §6

[13] = tested on: weeds; experiment: Post-emergence test, action against weeds; assay type: in vivo
Protocol: as §1, §2, §3
(§7) Test plants of a height of 5-15 cm are sprayed with the preparation of active compound such that the particular amounts of active compound desired are applied per unit area. The concentration of the spray liquor is chosen such that the particular amounts of active compound desired are applied in 10001 of water/ha.
(§8) After three weeks, the degree of damage to the plants is rated in % damage in comparison to the development of the untreated control.
as §6

[14] = tested on: Abutilon; experiment: Post-emergence test, Abutilon; assay type: in vivo; settings: 15 g ai/ha, after three weeks
Protocol: as §1, §2, §3, §7, §8, §6

[15] = tested on: Amaranthus; experiment: Post-emergence test, Amaranthus; assay type: in vivo; settings: 15 g ai/ha, after three weeks
Protocol: as §1, §2, §3, §7, §8, §6

[16] = tested on: Matricaria; experiment: Post-emergence test, Matricaria; assay type: in vivo; settings: 15 g ai/ha, after three weeks
Protocol: as §1, §2, §3, §7, §8, §6

[17] = tested on: Setaria; experiment: Post-emergence test, Setaria; assay type: in vivo; settings: 15 g ai/ha, after three weeks, vs untreated control (Table B-1)
Protocol: as §1, §2, §3, §7, §8, §6

[18] = tested on: Stellaria; experiment: Post-emergence test, Stellaria; assay type: in vivo; settings: 15 g ai/ha, after three weeks
Protocol: as §1, §2, §3, §7, §8, §6

[19] = tested on: Xanthium; experiment: Post-emergence test, Xanthium; assay type: in vivo; settings: 15 g ai/ha, after three weeks, vs untreated control (Table B-1)
Protocol: as §1, §2, §3, §7, §8, §6

[20] = tested on: Sugar beet; experiment: Pre-emergence test, Sugar beet; assay type: in vivo; settings: 30 g ai/ha, after three weeks, vs untreated control (Table A-5)
Protocol: as §1, §2, §3, §4, §5, §6

[21] = tested on: Alopecurus; experiment: Post-emergence test, Alopecurus; assay type: in vivo; settings: 15 g ai/ha, after three weeks, vs untreated control (Table B-2)
Protocol: as §1, §2, §3, §7, §8, §6

[22] = tested on: Lolium; experiment: Post-emergence test, Lolium; assay type: in vivo; settings: 15 g ai/ha, after three weeks, vs untreated control (Table B-2)
Protocol: as §1, §2, §3, §7, §8, §6

[23] = tested on: Echinochloa; experiment: Post-emergence test, Echinochloa; assay type: in vivo; settings: 15 g ai/ha, after three weeks, vs untreated control (Table B-2)
Protocol: as §1, §2, §3, §7, §8, §6

[24] = 4 g ai/ha, vs untreated control (Table A-2)
[25] = vs untreated control (Table A-4)
[26] = 30 g ai/ha, vs untreated control (Table A-4)
[27] = 8 g ai/ha, vs untreated control (Table A-1)
[28] = vs untreated control (Table B-1)
[29] = vs untreated control (Table A-5)
[30] = 30 g ai/ha, vs untreated control (Table A-5)
[31] = vs untreated control (Table B-2)
[32] = vs untreated control (Table A-3)
[33] = 30 g ai/ha, vs untreated control (Table A-3)

Question: Which “degree of damage, Barley” value [1] does the source give for CCCOc1nn(C(=O)NS(=O)(=O)c2c(OCC)cccc2OCCF)c(=O)n1C [Ex. 34] here?
Answer: 10%

Question: And the melting point?
Answer: 123 °C

Question: What about the “degree of damage, Viola” value [2, 24] of the same compound?
Answer: 95%

Question: And the “degree of damage, Amaranthus” value [3, 24]?
Answer: 95%

Question: And the “degree of damage, Wheat” value [4, 24]?
Answer: 0%

Question: What about the “degree of damage, Alopecurus” value [5, 24] of the same compound?
Answer: 100%

Question: What about the “degree of damage, Matricaria” value [6, 24] of the same compound?
Answer: 100%

Question: What about the “degree of damage, Solanum” value [7, 24] of the same compound?
Answer: 95%

Question: And the action against weeds [8]?
Answer: very strong action

Question: Which melting point does the source give for CCc1cccc(OCCCF)c1S(=O)(=O)NC(=O)n1nc(CC)n(C2CC2)c1=O [Ex. 93] here?
Answer: 140 °C

Question: And the “degree of damage, Galium” value [9, 25]?
Answer: 95%

Question: And the “degree of damage, Viola” value [2, 26]?
Answer: 100%

Question: What about the “degree of damage, Lolium” value [10, 25] of the same compound?
Answer: 95%

Question: What about the “degree of damage, Amaranthus” value [3, 26] of the same compound?
Answer: 100%

Question: What about the “degree of damage, Alopecurus” value [5, 26] of the same compound?
Answer: 95%

Question: What about the “degree of damage, Echinochloa” value [11, 25] of the same compound?
Answer: 100%

Question: What about the “degree of damage, Stellaria” value [12, 25] of the same compound?
Answer: 100%

Question: And the action against weeds [8]?
Answer: very strong action

Question: What does the source list for CCCOc1cccc(OCCF)c1S(=O)(=O)NC(=O)n1nc(OCC)n(C)c1=O [Ex. 32]?
Answer: melting point: 132 °C; degree of damage, Viola [2, 27]: 100%; action against weeds [13]: very strong action; degree of damage, Abutilon [14, 28]: 100%; degree of damage, Amaranthus [3, 27]: 100%; degree of damage, Alopecurus [5, 27]: 100%; degree of damage, Amaranthus [15, 28]: 100%; degree of damage, Matricaria [16, 28]: 100%; degree of damage, Setaria [17]: 95%; degree of damage, Stellaria [18, 28]: 100%; degree of damage, Matricaria [6, 27]: 100%; degree of damage, Xanthium [19]: 100%; degree of damage, Solanum [7, 27]: 100%; action against weeds [8]: very strong action

Question: With CCCc1cccc(OCCCF)c1S(=O)(=O)NC(=O)n1nc(N(C)C)n(C2CC2)c1=O [Ex. 114] as the compound, how does the melting point read?
Answer: 130 °C

Question: And the “degree of damage, Galium” value [9, 29]?
Answer: 80%

Question: And the “degree of damage, Lolium” value [10, 29]?
Answer: 95%

Question: What about the “degree of damage, Amaranthus” value [3, 30] of the same compound?
Answer: 95%

Question: What about the “degree of damage, Sugar beet” value [20] of the same compound?
Answer: 0%

Question: And the “degree of damage, Alopecurus” value [5, 30]?
Answer: 95%

Question: What about the “degree of damage, Stellaria” value [12, 29] of the same compound?
Answer: 95%

Question: And the action against weeds [8]?
Answer: very strong action

Question: Which “degree of damage, Alopecurus” value [21] does the source give for CCOc1cccc(OCCF)c1S(=O)(=O)NC(=O)n1nc(OCC)n(C)c1=O [Ex. 33] here?
Answer: 95%

Question: And the melting point?
Answer: 157 °C

Question: And the action against weeds [13]?
Answer: very strong action

Question: What about the “degree of damage, Abutilon” value [14, 31] of the same compound?
Answer: 100%

Question: And the “degree of damage, Lolium” value [22]?
Answer: 95%

Question: What about the “degree of damage, Amaranthus” value [15, 31] of the same compound?
Answer: 100%

Question: And the “degree of damage, Matricaria” value [16, 31]?
Answer: 100%

Question: And the “degree of damage, Stellaria” value [18, 31]?
Answer: 100%

Question: And the “degree of damage, Echinochloa” value [23]?
Answer: 100%

Question: For COc1nn(C(=O)NS(=O)(=O)c2c(C)cccc2OCCCF)c(=O)n1C [Ex. 41], which melting point is on record?
Answer: 120 °C

Question: What about the “degree of damage, Galium” value [9, 32] of the same compound?
Answer: 100%

Question: What about the “degree of damage, Lolium” value [10, 32] of the same compound?
Answer: 90%

Question: What about the “degree of damage, Amaranthus” value [3, 33] of the same compound?
Answer: 95%

Question: What about the “degree of damage, Wheat” value [4, 33] of the same compound?
Answer: 0%

Question: And the “degree of damage, Matricaria” value [6, 33]?
Answer: 100%

Question: And the “degree of damage, Echinochloa” value [11, 32]?
Answer: 95%

Question: What about the “degree of damage, Stellaria” value [12, 32] of the same compound?
Answer: 100%

Question: And the action against weeds [8]?
Answer: very strong action

Question: For CCc1ccccc1S(=O)(=O)N(OCCF)C(=O)n1nc(C)n(C2CC2)c1=O [Ex. 1, 4-cyclopropyl-5-methyl-2-[(2-fluoro-ethoxy)-6-ethyl-phenylsulphonylaminocarbonyl]-2,4-dihydro-3H-1,2,4-triazol-3-one], which melting point is on record?
Answer: 147 °C
